In brackets after ≈: the same amount, converted by molar mass.
Each compound was assayed on P388 (assay: Cytotoxicity against mouse P388 cells).
Format: functional, cell-based

Structure (SMILES) | IC50
COC(=O)C[C@](O)(CCCC(C)C)C(=O)O[C@@H]1C(OC)=C[C@]23CCCN2C[C@@H](O)c2cc4c(cc2[C@H]13)OCO4 | 0.38 µg/mL (≈ 0.696 µM)
COC(=O)C[C@](O)(CCCC(C)C)C(=O)O[C@@H]1C(OC)=C[C@]23CCCN2C[C@H](O)c2cc4c(cc2[C@H]13)OCO4 | 0.33 µg/mL (≈ 0.605 µM)
COC(=O)C[C@](O)(CCC(C)C)C(=O)O[C@@H]1C(OC)=C[C@]23CCCN2C[C@H](O)c2cc4c(cc2[C@H]13)OCO4 | 0.17 µg/mL (≈ 0.32 µM)
